Test results published in PubChem BioAssay (NCI).
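GI50 marks 50% less growth. Definition used: TGI = concentration required for complete inhibition of growth.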

Assays:
Assay in all cases: DTP human tumour cell line panel, 384-well format
COLO 205 colon = system: COLO 205 colon
M14 melanoma = system: M14 melanoma
IGROV1 ovarian = system: IGROV1 ovarian
SF-539 CNS = system: SF-539 CNS
TK-10 renal = system: TK-10 renal
MOLT-4 leukemia = system: MOLT-4 leukemia
SK-MEL-2 melanoma = system: SK-MEL-2 melanoma
ACHN renal = system: ACHN renal
OVCAR-4 ovarian = system: OVCAR-4 ovarian
MCF7 breast = system: MCF7 breast
OVCAR-3 ovarian = system: OVCAR-3 ovarian
RPMI-8226 leukemia = system: RPMI-8226 leukemia
NCI/ADR-RES ovarian = system: NCI/ADR-RES ovarian
UACC-257 melanoma = system: UACC-257 melanoma
MDA-MB-468 breast = system: MDA-MB-468 breast
SK-MEL-28 melanoma = system: SK-MEL-28 melanoma
SNB-19 CNS = system: SNB-19 CNS
NCI-H23 lung = system: NCI-H23 lung
SN12C renal = system: SN12C renal
HL-60(TB) leukemia = system: HL-60(TB) leukemia
SF-295 CNS = system: SF-295 CNS
NCI-H322M lung = system: NCI-H322M lung
UACC-62 melanoma = system: UACC-62 melanoma
786-0 renal = system: 786-0 renal
HCT-116 colon = system: HCT-116 colon
SNB-75 CNS = system: SNB-75 CNS
NCI-H460 NSCLC = system: NCI-H460 NSCLC
SK-MEL-5 melanoma = system: SK-MEL-5 melanoma

Question: `CCOC(=O)CCC(NC(=O)C(Cc1ccc(N(CCCl)CCCl)cc1)NC=O)C(=O)OCC` (stereo not given) was tested. Which TGI (COLO 205 colon) did it give?
Answer: 2380 nM

Question: What about the GI50 (M14 melanoma) of the same molecule?
Answer: 449 nM

Question: And the TGI (M14 melanoma)?
Answer: 1400 nM

Question: And the GI50 (IGROV1 ovarian)?
Answer: 1370 nM

Question: What about the TGI (IGROV1 ovarian) of the same molecule?
Answer: 5370 nM

Question: What about the GI50 (SF-539 CNS) of the same molecule?
Answer: 837 nM

Question: And the TGI (SF-539 CNS)?
Answer: 2160 nM

Question: What about the GI50 (TK-10 renal) of the same molecule?
Answer: 11400 nM

Question: What about the TGI (TK-10 renal) of the same molecule?
Answer: 29200 nM

Question: And the GI50 (MOLT-4 leukemia)?
Answer: 32.2 nM

Question: What about the TGI (MOLT-4 leukemia) of the same molecule?
Answer: 113 nM

Question: And the GI50 (SK-MEL-2 melanoma)?
Answer: 640 nM

Question: What about the TGI (SK-MEL-2 melanoma) of the same molecule?
Answer: 1850 nM

Question: And the GI50 (ACHN renal)?
Answer: 446 nM

Question: And the TGI (ACHN renal)?
Answer: 1880 nM

Question: And the GI50 (OVCAR-4 ovarian)?
Answer: 2600 nM

Question: And the TGI (OVCAR-4 ovarian)?
Answer: 5830 nM

Question: And the GI50 (MCF7 breast)?
Answer: 4060 nM

Question: And the TGI (MCF7 breast)?
Answer: 25900 nM

Question: What about the GI50 (OVCAR-3 ovarian) of the same molecule?
Answer: 1140 nM

Question: And the TGI (OVCAR-3 ovarian)?
Answer: 2710 nM

Question: What about the GI50 (RPMI-8226 leukemia) of the same molecule?
Answer: 355 nM

Question: And the TGI (RPMI-8226 leukemia)?
Answer: 899 nM

Question: And the GI50 (NCI/ADR-RES ovarian)?
Answer: 8380 nM

Question: What about the TGI (NCI/ADR-RES ovarian) of the same molecule?
Answer: 21200 nM

Question: What about the GI50 (UACC-257 melanoma) of the same molecule?
Answer: 1970 nM

Question: And the TGI (UACC-257 melanoma)?
Answer: 4650 nM

Question: And the GI50 (MDA-MB-468 breast)?
Answer: 339 nM

Question: What about the TGI (MDA-MB-468 breast) of the same molecule?
Answer: 763 nM

Question: And the GI50 (SK-MEL-28 melanoma)?
Answer: 1480 nM

Question: What about the TGI (SK-MEL-28 melanoma) of the same molecule?
Answer: 3340 nM

Question: And the GI50 (SNB-19 CNS)?
Answer: 3810 nM

Question: What about the TGI (SNB-19 CNS) of the same molecule?
Answer: 26100 nM

Question: And the GI50 (NCI-H23 lung)?
Answer: 1120 nM

Question: And the TGI (NCI-H23 lung)?
Answer: 2990 nM

Question: What about the GI50 (SN12C renal) of the same molecule?
Answer: 604 nM

Question: And the TGI (SN12C renal)?
Answer: 2610 nM

Question: And the GI50 (HL-60(TB) leukemia)?
Answer: 33.5 nM

Question: And the TGI (HL-60(TB) leukemia)?
Answer: 138 nM

Question: And the GI50 (SF-295 CNS)?
Answer: 2120 nM

Question: And the TGI (SF-295 CNS)?
Answer: 4490 nM

Question: What about the GI50 (NCI-H322M lung) of the same molecule?
Answer: 13800 nM

Question: And the TGI (NCI-H322M lung)?
Answer: 30100 nM

Question: What about the GI50 (UACC-62 melanoma) of the same molecule?
Answer: 758 nM

Question: And the TGI (UACC-62 melanoma)?
Answer: 2270 nM

Question: And the GI50 (786-0 renal)?
Answer: 1340 nM

Question: What about the TGI (786-0 renal) of the same molecule?
Answer: 2910 nM

Question: And the GI50 (HCT-116 colon)?
Answer: 4130 nM

Question: And the TGI (HCT-116 colon)?
Answer: 24300 nM

Question: What about the GI50 (SNB-75 CNS) of the same molecule?
Answer: 2350 nM

Question: And the TGI (SNB-75 CNS)?
Answer: 5590 nM

Question: And the GI50 (NCI-H460 NSCLC)?
Answer: 566 nM

Question: What about the TGI (NCI-H460 NSCLC) of the same molecule?
Answer: 2910 nM

Question: And the GI50 (SK-MEL-5 melanoma)?
Answer: 1220 nM

Question: And the TGI (SK-MEL-5 melanoma)?
Answer: 2590 nM
